Values of other authors, collected in patent publication US20220087961A1, “TREATMENT METHODS OF TRIPHENYL CALCILYTIC COMPOUNDS” (CALCILYTIX THERAPEUTICS, INC., priority 2020, published 2022).

Tested on: subjects with ADH1
Settings: subjects with ADH1, sample size of 5; cited from earlier work

Which “dose-response on iPTH” value does the source give for `CC(C)(CC1Cc2ccccc2C1)NC[C@@H](O)COc1cc(CCC(=O)O)ccc1C#N` [NPSP795] here?
The value was “preliminary evidence for a dose-response on iPTH”.
